# From US20260284208A1, “SYSTEM” (Oxford University Innovation Limited, priority 2023, published 2026)
# Tested on: library of 8,380 IKZF3 degrons (ZF-eGFP/mCherry reporter) in Jurkat cells
# Assay: Pooled library screen (FACS, NGS, limma voom LogFC of positive vs negative read counts)
# Type: cell-based, human
# Procedure: A library of 8,380 IKZF3 degrons was cloned into pLVX-Sprout to create the eGFP/mCherry protein degradation reporter plasmid pool. A lentivirus pool was then generated using the Lenti-X lentiviral vector production method.
# Jurkat cells were transduced at a multiplicity of infection of <0.3 with the lentivirus vector library in order to maximise the number of cells with a single integration. Transductions were carried out in 6 well TC-treated cell culture dishes (Falcon) with 3×10^6 cells per well. Cells were incubated for 2 days at 37° C. and 5% CO2 before the supernatant was removed and replaced with fresh media. 6 days post-transduction, mCherry+ cells were isolated via FACS using the FACS Aria Fusion (BD) in a buffer containing PBS (Gibco), 2 mM EDTA (Gibco), 25 mM HEPES (Sigma) and 1% BSA (Sigma). 8 days later, cells were treated with DMSO or a thalidomide analog for 18 hours at 37° C. and 5% CO2. mCherry+GFPlow and NOT(mCherry+GFPlow) cells were sorted by FACS using the FACS Aria Fusion (BD). DMSO treated cells were used to set the mCherry+GFPlow gate and dead cells were excluded from sorting by staining cells with 1 μg/mL DAPI (ThermoFisher). gDNA was isolated using the Maxwell RSC 48 (Promega). gDNA from cells that were unsorted and untreated were also isolated to determine the library representation on the day of compound treatment. Throughout the screen >600× coverage of the library was maintained. 3 biological replicates were carried out with a new transduction taking place each time.
# A two-step PCR was used where the first PCR (PCR1) amplified the integrated degron sequence from gDNA and the second PCR (PCR2) added Illumina adaptors and barcodes to permit multiplexing. See Supp F for PCR1 and PCR2 primers. Q5 Hot Start High-Fidelity 2× Master Mix (New England Biolabs) was used for both PCRs. Sufficient gDNA was amplified in PCR1 in order to maintain >600× coverage and amplicons were purified using solid phase reversible immobilization (SPRI) beads (Beckman Coulter). Purified PCR1 products were analysed on the Tapestation 4200 (Agilent) to confirm purity prior to proceeding to PCR2. Sufficient PCR1 product was amplified in PCR2 in order to maintain >600× coverage and amplicons were run on a 2% agarose TAE gel. Target bands were excised and purified using the NucleoSpin Gel and PCR Clean-up Kit (Machery Nagel). Amplicons were analysed on the Tapestation 4200 and quantified using Qubit dsDNA HS kit (ThermoFisher). PCR products were pooled and sequenced as paired-reads on the NovaSeq (Illumina) using a SP2 200 cycles kit (Illumina).
# Count distributions, percentage of read mapping, library coverage and replicate correlation per sample were assessed for QC purposes.
# To carry out the library screen, we used the same plasmid construct as in our earlier flow cytometry assays, but pooling all 8,380 mutants together into one Jurkat population, ensuring a copy number of one plasmid per cell (FIG. 4B). […] These GFP-negative cells were then separated from the remaining GFP-positive population using fluorescence activated cell sorting (FACS). These two populations were then sequenced and the relative abundance of every mutant in both populations compared to provide a log FC value for each mutant sequence. This value indicated how frequently a sequence is observed in the GFP-negative population relative to the GFP-positive population, and therefore how effective a degron it is for that particular IMID compound.
smiles,measurement,setting,value
"O=C1CCC(N2C(=O)c3ccccc3C2=O)C(=O)N1 (centres unmarked) [A32, 2-(2,6-dioxopiperidin-3-yl)isoindoline-1,3-dione]",A32_logFC,"Degron-ID 794, SEQ ID NO 61, 46F_47E_49E_50I_52G_53A_54R_55F_67L",3.549
same,A32_logFC,"Degron-ID 834, SEQ ID NO 125, 46F_47E_49E_50V_52G_53A_54R_55F_67L",3.292
same,A32_logFC,"Degron-ID 911, SEQ ID NO 130, 46F_47E_49P_50I_52G_53A_54N_55F_67L",3.269
same,A32_logFC,"Degron-ID 914, SEQ ID NO 108, 46F_47E_49P_50I_52G_53A_54R_55F_67L",3.367
same,A32_logFC,"Degron-ID 915, SEQ ID NO 119, 46F_47E_49P_50I_52G_53A_54S_55F_67L",3.325
same,A32_logFC,"Degron-ID 917, SEQ ID NO 116, 46F_47E_49P_50I_52G_53A_54V_55F_67L",3.331
same,A32_logFC,"Degron-ID 1752, SEQ ID NO 91, 46F_47I_49E_50I_52G_53A_54P_55F_67L",3.433
same,A32_logFC,"Degron-ID 2392, SEQ ID NO 93, 46F_47L_49P_50V_52G_53A_54P_55F_67L",3.414
same,A32_logFC,"Degron-ID 2881, SEQ ID NO 123, 46F_47Q_49D_50I_52G_53A_54C_55F_67L",3.299
same,A32_logFC,"Degron-ID 2887, SEQ ID NO 82, 46F_47Q_49D_50I_52G_53A_54I_55F_67L",3.467
same,A32_logFC,"Degron-ID 2888, SEQ ID NO 126, 46F_47Q_49D_50I_52G_53A_54K_55F_67L",3.282
same,A32_logFC,"Degron-ID 2892, SEQ ID NO 112, 46F_47Q_49D_50I_52G_53A_54P_55F_67L",3.346
same,A32_logFC,"Degron-ID 2941, SEQ ID NO 79, 46F_47Q_49E_50I_52G_53A_54C_55F_67L",3.477
same,A32_logFC,"Degron-ID 2943, SEQ ID NO 71, 46F_47Q_49E_50I_52G_53A_54E_55F_67L",3.525
same,A32_logFC,"Degron-ID 2948, SEQ ID NO 84, 46F_47Q_49E_50I_52G_53A_54K_55F_67L",3.461
same,A32_logFC,"Degron-ID 2949, SEQ ID NO 65, 46F_47Q_49E_50I_52G_53A_54L_55F_67L",3.534
same,A32_logFC,"Degron-ID 2950, SEQ ID NO 54, 46F_47Q_49E_50I_52G_53A_54M_55F_67L",3.574
same,A32_logFC,"Degron-ID 2953, SEQ ID NO 58, 46F_47Q_49E_50I_52G_53A_54Q_55F_67L",3.557
same,A32_logFC,"Degron-ID 2956, SEQ ID NO 137, 46F_47Q_49E_50I_52G_53A_54T_55F_67L",3.256
same,A32_logFC,"Degron-ID 2988, SEQ ID NO 97, 46F_47Q_49E_50V_52G_53A_54K_55F_67L",3.401
same,A32_logFC,"Degron-ID 2990, SEQ ID NO 72, 46F_47Q_49E_50V_52G_53A_54M_55F_67L",3.522
same,A32_logFC,"Degron-ID 2991, SEQ ID NO 55, 46F_47Q_49E_50V_52G_53A_54N_55F_67L",3.561
same,A32_logFC,"Degron-ID 2992, SEQ ID NO 64, 46F_47Q_49E_50V_52G_53A_54P_55F_67L",3.535
same,A32_logFC,"Degron-ID 2995, SEQ ID NO 67, 46F_47Q_49E_50V_52G_53A_54S_55F_67L",3.531
same,A32_logFC,"Degron-ID 3000, SEQ ID NO 100, 46F_47Q_49N_50I_52G_53A_54A_55F_67L",3.386
same,A32_logFC,"Degron-ID 3001, SEQ ID NO 105, 46F_47Q_49N_50I_52G_53A_54C_55F_67L",3.375
same,A32_logFC,"Degron-ID 3007, SEQ ID NO 7, 46F_47Q_49N_50I_52G_53A_54I_55F_67L",3.811
same,A32_logFC,"Degron-ID 3008, SEQ ID NO 134, 46F_47Q_49N_50I_52G_53A_54K_55F_67L",3.259
same,A32_logFC,"Degron-ID 3013, SEQ ID NO 127, 46F_47Q_49N_50I_52G_53A_54Q_55F_67L",3.279
same,A32_logFC,"Degron-ID 3014, SEQ ID NO 133, 46F_47Q_49N_50I_52G_53A_54R_55F_67L",3.262
same,A32_logFC,"Degron-ID 3015, SEQ ID NO 114, 46F_47Q_49N_50I_52G_53A_54S_55F_67L",3.343
same,A32_logFC,"Degron-ID 3016, SEQ ID NO 6, 46F_47Q_49N_50I_52G_53A_54T_55F_67L",3.867
same,A32_logFC,"Degron-ID 3017, SEQ ID NO 80, 46F_47Q_49N_50I_52G_53A_54V_55F_67L",3.473
same,A32_logFC,"Degron-ID 3047, SEQ ID NO 106, 46F_47Q_49N_50V_52G_53A_54I_55F_67L",3.374
same,A32_logFC,"Degron-ID 3057, SEQ ID NO 94, 46F_47Q_49N_50V_52G_53A_54V_55F_67L",3.409
same,A32_logFC,"Degron-ID 3060, SEQ ID NO 68, 46F_47Q_49P_50I_52G_53A_54A_55F_67L",3.529
same,A32_logFC,"Degron-ID 3062, SEQ ID NO 8, 46F_47Q_49P_50I_52G_53A_54D_55F_67L",3.806
same,A32_logFC,"Degron-ID 3066, SEQ ID NO 120, 46F_47Q_49P_50I_52G_53A_54H_55F_67L",3.318
same,A32_logFC,"Degron-ID 3067, SEQ ID NO 10, 46F_47Q_49P_50I_52G_53A_54I_55F_67L",3.792
same,A32_logFC,"Degron-ID 3068, SEQ ID NO 90, 46F_47Q_49P_50I_52G_53A_54K_55F_67L",3.436
same,A32_logFC,"Degron-ID 3069, SEQ ID NO 107, 46F_47Q_49P_50I_52G_53A_54L_55F_67L",3.373
same,A32_logFC,"Degron-ID 3071, SEQ ID NO 50, 46F_47Q_49P_50I_52G_53A_54N_55F_67L",3.58
same,A32_logFC,"Degron-ID 3074, SEQ ID NO 62, 46F_47Q_49P_50I_52G_53A_54R_55F_67L",3.549
same,A32_logFC,"Degron-ID 3075, SEQ ID NO 11, 46F_47Q_49P_50I_52G_53A_54S_55F_67L",3.79
same,A32_logFC,"Degron-ID 3076, SEQ ID NO 56, 46F_47Q_49P_50I_52G_53A_54T_55F_67L",3.56
same,A32_logFC,"Degron-ID 3079, SEQ ID NO 109, 46F_47Q_49P_50I_52G_53A_54Y_55F_67L",3.361
same,A32_logFC,"Degron-ID 3080, SEQ ID NO 129, 46F_47Q_49P_50Q_52G_53A_54A_55F_67L",3.273
same,A32_logFC,"Degron-ID 3081, SEQ ID NO 138, 46F_47Q_49P_50Q_52G_53A_54C_55F_67L",3.255
same,A32_logFC,"Degron-ID 3097, SEQ ID NO 92, 46F_47Q_49P_50Q_52G_53A_54V_55F_67L",3.423
same,A32_logFC,"Degron-ID 3101, SEQ ID NO 83, 46F_47Q_49P_50V_52G_53A_54C_55F_67L",3.465
